Residues, ends and D or L forms follow the SMILES beside them. *: point of attachment. Cbz = O=C(OCc1ccccc1)*; CH2F = FC*
Tests used:
[1] = target: T1, Marasmius oreades agglutinin (MOA) (Marasmius oreades, UniProt Q8X123); assay: X-ray crystal structure (co-crystal, […]-1.[…] Å); format: binding; conditions: calcium, imidazole pH 8.0
T1 construct: wild-type full-length 293 aa cDNA (MOApT7-LO), E. coli BL21(DE3), no tag mentioned; homodimer; model residues 2-293, Met1 probably cleaved

[2] = target: the molecule itself; assay: crystal structure; MOA 5 mg/ml mixed with Galα1,3(Fucα1,2)Gal trisaccharide (1:20) and Z-VAD-fmk (1:3, 1:20 or 1:30 MOA:inhibitor); 0.1 M imidazole pH 8.0, 10-16% PEG 8000, 0.2 M calcium acetate, with or without 5% DMSO; space group P6(3)22; three data sets (ZVAD-direct, ZVAD-inverted, ZVAD-dual)

Q: How did the “X-ray crystal structure (co-crystal, 1.6-1.7 Å)” value ([1]; three lectin-domain sugar sites (α, β, γ), 1:20 MOA:sugar) turn out when `C[C@@H]1O[C@@H](O[C@H]2C(O)O[C@H](CO)[C@H](O)[C@@H]2O[C@H]2O[C@H](CO)[C@H](O)[C@H](O)[C@H]2O)[C@@H](O)[C@H](O)[C@@H]1O` (stereo partly drawn) [Galα1,3(Fucα1,2)Gal trisaccharide] was run?
A: The three sugar binding sites of MOA show a different preference for the anomeric form

Q: `CC(C)[C@H](NC(=O)OCc1ccccc1)C(=O)N[C@@H](C)C(=O)N[C@@H](CC(=O)O)C(=O)CF` [Z-VAD-fmk] (Cbz-Val-Ala-Asp-CH2F) was tested. Which “X-ray crystal structure (co-crystal, 1.6-1.7 Å)” value ([1]; covalent, thioether with catalytic Cys215, direct and inverted orientations) did it give?
A: the inhibitor molecule binds to the active site of MOA forming a thioether

B1: Marasmius oreades agglutinin (MOA), wild type (enzyme)
chain: MSLRRGIYHIENAGVPSAIDLKDGSSSDGTPIVGWQFTPDTINWHQLWLAEPIPNVADTFTLCNLFSGTYMDLYNGSSEAGTAVNGWQGTAFTTNPHQLWTIKKSSDGTSYKIQNYGSKTFVDLVNGDSSDGAKIAGWTGTWDEGNPHQKWYFNRMSVSSAEAQAAIARNPHIHGTYRGYILDGEYLVLPNATFTQIWKDSGLPGSKWREQIYDCDDFAIAMKAAVGKWGADSWKANGFAIFCGVMLGVNKAGDAAHAYNFTLTKDHADIVFFEPQNGGYLNDIGYDSYMAFY
notes: Marasmius oreades agglutinin, wild-type cDNA in vector MOApT7-LO; 293 amino acids; Homodimer; one protomer in the asymmetric unit, the dimer arises by crystallographic symmetry; source: E. coli BL21 (DE3), purified (D-Gal-sepharose, cation exchange, size exclusion)
Q: Does B1 bind [2]?
A: binds
